These results are taken from US20250129092A1, “COMPOUNDS USEFUL IN MODULATION OF AHR SIGNALLING” (JAGUAHR THERAPEUTICS PTE LTD, priority 2021, published 2025).

Structures are written as SMILES.

Assay [1] has as its target T1, AhR (Homo sapiens, UniProt P35869).
T1 sequence (P35869 11-848): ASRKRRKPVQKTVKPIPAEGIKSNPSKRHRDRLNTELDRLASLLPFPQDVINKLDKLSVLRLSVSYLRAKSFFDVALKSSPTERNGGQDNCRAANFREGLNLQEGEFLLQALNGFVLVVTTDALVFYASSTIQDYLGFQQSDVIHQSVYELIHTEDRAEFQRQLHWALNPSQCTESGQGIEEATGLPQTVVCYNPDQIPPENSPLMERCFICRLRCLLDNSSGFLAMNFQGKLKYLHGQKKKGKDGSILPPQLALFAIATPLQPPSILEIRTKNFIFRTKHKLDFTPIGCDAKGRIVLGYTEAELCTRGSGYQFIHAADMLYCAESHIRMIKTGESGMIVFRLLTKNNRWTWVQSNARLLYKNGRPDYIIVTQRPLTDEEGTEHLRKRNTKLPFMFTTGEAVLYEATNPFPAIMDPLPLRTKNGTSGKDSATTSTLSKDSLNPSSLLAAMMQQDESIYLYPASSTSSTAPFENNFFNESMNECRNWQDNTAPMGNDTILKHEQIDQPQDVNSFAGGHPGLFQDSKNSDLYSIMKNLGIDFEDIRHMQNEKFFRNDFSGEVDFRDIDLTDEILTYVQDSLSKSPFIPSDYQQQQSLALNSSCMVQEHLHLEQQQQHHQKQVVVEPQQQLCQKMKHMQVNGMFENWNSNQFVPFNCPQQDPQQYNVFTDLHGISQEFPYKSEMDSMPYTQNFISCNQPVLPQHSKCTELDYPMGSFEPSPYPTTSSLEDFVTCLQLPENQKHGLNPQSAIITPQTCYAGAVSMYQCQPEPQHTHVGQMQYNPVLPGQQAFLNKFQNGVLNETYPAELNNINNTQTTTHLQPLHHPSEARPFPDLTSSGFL
Put plainly: AhR antagonism in U937 cells (Promega P450-Glo assay). Also on record: endogenous in cells; host or cells: U937 cells. To be noted: CYP1A1 activity readout (Luciferin-CEE), head names VAF347, average, read-out: U937 Antagonist pIC50-VAF347: av. pIC50 (converted). It is filed as cell-based. The protocol:
In Vitro Assay 1: AhR Antagonism in U937 Cells (Promega P450-Glo™ Assay)
AhR antagonism was assessed in LJ937 cells (myeloid lineage cell line derived from a human histiocytic lymphoma). Ligand binds the AhR in the cytoplasm, and the AhR-ligand complex translocates to the nucleus and forms a heterodimer with AhR nuclear translocator (Arnt). This complex binds the xenobiotic response element (XRE) in the 5′ upstream region of the CYP1A1 promoter, enhancing CYP1A1 expression. CYP1A1 activity is subsequently determined by assessing the conversion of Luciferin-CEE to luciferin, which in turn reacts with luciferase to produce light. The amount of light produced is directly proportional to cytochrome P450 activity. U937 cells in Ultraculture serum free media (Lonza) were plated at 100,000 cells per well in a round bottom 96 well tissue culture plate. […] The plates were then placed in an incubator at 37° C., ≥85% humidity, 5% CO2 for 24 hrs. After aspiration of the supernatant the CYP1A1 substrate Luciferin-CEE ([Final] 83 μM) was added and incubated for 3 hrs before the reaction was stopped by adding luciferin detection reagent and luminescence was read after 20 minutes.

Assay [2] has as its target T1, AhR. Put plainly: AhR antagonism in human PBMCs - inhibition of IL-22 release. It is filed as cell-based. Also on record: endogenous in cells. To be noted: human PBMCs activated with CD3/CD28 agonist mixture, 72 hrs, IL-22 ELISA; average; read-out: hPBMC Inhibition of CD3/CD28 induced IL-22 release: av. pIC50 (converted). An excerpt: In Vitro Assay 3: AhR Antagonism in Human Peripheral Blood Mononuclear Cells (PBMCs)-Inhibition of Interleukin-22 (IL-22) Release.
PBMCs were isolated from human peripheral blood using Lymphoprep™ and diluted to 1×10^6 cells per ml in RPMI media containing […] foetal bovine serum, 1% penicillin-streptomycin and 1% non essential amino acids. PBMCs were subsequently activated with 1p1 per 100,000 cells of a CD3/CD28 agonist mixture (human T Cell TransAct™ (Miltenyi Biotec)) and then plated at 100,000 cells per well in a round bottom 96 well tissue culture plate. One hour after stimulation seven concentrations of each test compound or vehicle (final [DMSO] 0.2%) were added. The plates were then placed in an incubator at 37° C., ≥85% humidity, 5% […] for 72 hrs before the media was removed and stored at −20° C. until cytokine analysis. IL-22 was measured using human IL-22 DuoSet ELISA (R&D systems) according to the manufacturer's instructions.
For orientation: ELISA stands for enzyme-linked immunosorbent assay.

Regarding `Cc1ncc(-c2nc3c(c(N[C@@H]4CCc5[nH]c6ccccc6c5C4)n2)OCC(CN(C)C)N3)s1` (mixture of isomers) [Example 38, 7-[(dimethylamino)methyl]-2-(2-methylthiazol-5-yl)-N-[(3R)-2,3,4,9-tetrahydro-1H-carbazol-3-yl]-7,8-dihydro-6H-pyrimido[5,4-b][1,4]oxazin-4-amine], the IC50 at AhR [1] is 66.1 nM; at AhR [2], 89.1 nM.
On to `Cc1ncc(-c2nc3c(c(N[C@@H]4Cc5cccc6[nH]cc(c56)C4)n2)OCCN3)s1` (single isomer, unassigned) [Example 61], for which the results for the IC50 on AhR [1] and at AhR [2] were 339 nM and 1260 nM, respectively.
Consider `Cc1ncc(-c2nc3c(c(N[C@H]4Cc5cccc6[nH]cc(c56)C4)n2)OCCN3)s1` (single isomer, unassigned) [Example 62], for which the values for the IC50 on AhR [1] and at AhR [2] were 50.1 nM and 132 nM, respectively.
Take `Cc1ccc(-c2nc3c(c(NCCc4c[nH]c5ccccc45)n2)OCCN3)cn1` [Example 15, N-[2-(1H-indol-3-yl)ethyl]-2-(6-methyl-3-pyridyl)-7,8-dihydro-6H-pyrimido[5,4-b][1,4]oxazin-4-amine]: at AhR [1], the IC50 was 89.1 nM.
For `Cc1ncc(-c2nc3c(c(NCCc4c[nH]c5ccccc45)n2)OCCN3)cc1F` [Example 16, 2-(5-fluoro-6-methyl-3-pyridyl)-N-[2-(1H-indol-3-yl)ethyl]-7,8-dihydro-6H-pyrimido[5,4-b][1,4]oxazin-4-amine], the IC50 at AhR [1] was 33.1 nM.
In the case of `O=c1ccc(-c2nc3c(c(NCCc4c[nH]c5ccccc45)n2)OCCN3)c[nH]1` [Example 18, 5-[4-[2-(1H-indol-3-yl)ethylamino]-7,8-dihydro-6H-pyrimido[5,4-b][1,4]oxazin-2-yl]-1H-pyridin-2-one], the IC50 on AhR [1] was 447 nM.
For the compound `COc1ncc(C)cc1-c1nc2c(c(NCCc3c[nH]c4ccccc34)n1)OCCN2` [Example 23, N-[2-(1H-indol-3-yl)ethyl]-2-(2-methoxy-5-methyl-3-pyridyl)-7,8-dihydro-6H-pyrimido[5,4-b][1,4]oxazin-4-amine], the IC50 at AhR [1] was 457 nM.
Consider `CC1(C)COc2c(NCCc3c[nH]c4ccccc34)nc(-c3cncc(F)c3)nc2N1` [Example 31, 2-(5-fluoro-3-pyridyl)-N-[2-(1H-indol-3-yl)ethyl]-7,7-dimethyl-6,8-dihydropyrimido[5,4-b][1,4]oxazin-4-amine], for which the IC50 at AhR [1] is 16.2 nM.
In the case of `Cc1ncc(-c2nc(N[C@@H]3CCc4[nH]c5ccccc5c4C3)c3c(n2)N(S(C)(=O)=O)CCO3)s1` [Example 39, 8-methylsulfonyl-2-(2-methylthiazol-5-yl)-N-[(3R)-2,3,4,9-tetrahydro-1H-carbazol-3-yl]-6,7-dihydropyrimido[5,4-b][1,4]oxazin-4-amine], the IC50 on AhR [1] was 89.1 nM.
Consider `O=c1[nH]cccc1-c1nc2c(c(NCCc3c(Cl)[nH]c4ccccc34)n1)OCCN2` [Example 40, 3-(4-((2-(2-chloro-1H-indol-3-yl)ethyl)amino)-7,8-dihydro-6H-pyrimido[5,4-b][1,4]oxazin-2-yl)pyridin-2(1H)-one], for which the IC50 at AhR [1] is 15.1 nM.
For the compound `Cc1[nH]c2c(F)cccc2c1CCNc1nc(-c2ccc[nH]c2=O)nc2c1OCCN2` [Example 41, 3-[4-[2-(7-fluoro-2-methyl-1H-indol-3-yl)ethylamino]-7,8-dihydro-6H-pyrimido[5,4-b][1,4]oxazin-2-yl]-1H-pyridin-2-one], the IC50 at AhR [1] is 19.5 nM.
For the compound `Cc1[nH]c2c(F)cc(F)cc2c1CCNc1nc(-c2ccc[nH]c2=O)nc2c1OCCN2` [Example 42, 3-(4-((2-(5,7-difluoro-2-methyl-1H-indol-3-yl)ethyl)amino)-7,8-dihydro-6H-pyrimido[5,4-b][1,4]oxazin-2-yl)pyridin-2-ol], the IC50 at AhR [1] is 209 nM.
As for `Oc1ncccc1-c1nc2c(c(NCCc3c[nH]c4cc(OC(F)(F)F)ccc34)n1)OCCN2` [Example 43, 3-(4-((2-(6-(trifluoromethoxy)-1H-indol-3-yl)ethyl)amino)-7,8-dihydro-6H-pyrimido[5,4-b][1,4]oxazin-2-yl)pyridin-2(1H)-one], at AhR [1], the IC50 was 7.08 nM.
Consider `COC[C@@H]1COc2c(NCCc3c[nH]c4cc(F)ccc34)nc(-c3ccc[nH]c3=O)nc2N1` [Example 47, (R)-3-(4-((2-(6-fluoro-1H-indol-3-yl)ethyl)amino)-7-(methoxymethyl)-7,8-dihydro-6H-pyrimido[5,4-b][1,4]oxazin-2-yl)pyridin-2(1H)-one], for which the IC50 on AhR [1] was 3.24 nM.
Turning to `Cc1ncc(-c2nc3c(c(N[C@@H]4CCc5[nH]c6ccccc6c5C4)n2)OCCN3)s1` [Example 51, 2-(2-methylthiazol-5-yl)-N-[(3R)-2,3,4,9-tetrahydro-1H-carbazol-3-yl]-7,8-dihydro-6H-pyrimido[5,4-b][1,4]oxazin-4-amine], the IC50 at AhR [1] is 204 nM.
In the case of `Cc1nc(C)c(-c2nc3c(c(NCCc4c[nH]c5ccccc45)n2)OCCN3)s1` [Example 52, 2-(2,4-dimethylthiazol-5-yl)-N-[2-(1H-indol-3-yl)ethyl]-7,8-dihydro-6H-pyrimido[5,4-b][1,4]oxazin-4-amine], the IC50 on AhR [1] is 17.8 nM.
Regarding `Cn1cc(-c2nc3c(c(NCCc4c[nH]c5ccccc45)n2)OCCN3)nn1` [Example 55, N-[2-(1H-indol-3-yl)ethyl]-2-(1-methyltriazol-4-yl)-7,8-dihydro-6H-pyrimido[5,4-b][1,4]oxazin-4-amine], on AhR [2], the IC50 was over 2000 nM.
Take `Cn1cc(-c2nc3c(c(NCCc4c[nH]c5ccccc45)n2)OCCN3)ccc1=O` [Example 58, 5-[4-[2-(1H-indol-3-yl)ethylamino]-7,8-dihydro-6H-pyrimido[5,4-b][1,4]oxazin-2-yl]-1-methyl-pyridin-2-one]: the IC50 on AhR [1] was 347 nM.
On to `COc1ncc(F)cc1-c1nc2c(c(N[C@@H]3CCc4[nH]c5ccccc5c4C3)n1)OCCN2` [Example 65, 2-(5-fluoro-2-methoxy-3-pyridyl)-N-[(3R)-2,3,4,9-tetrahydro-1H-carbazol-3-yl]-7,8-dihydro-6H-pyrimido[5,4-b][1,4]oxazin-4-amine], for which, on AhR [1], the IC50 was over 813 nM.
Consider `COc1ncc(F)cc1-c1nc2c(c(NCCc3c[nH]c4ccccc34)n1)OCCN2` [Example 67, 2-(5-fluoro-2-methoxy-3-pyridyl)-N-[2-(1H-indol-3-yl)ethyl]-7,8-dihydro-6H-pyrimido[5,4-b][1,4]oxazin-4-amine], for which the IC50 at AhR [1] is 66.1 nM.
In the case of `Cc1c[nH]c(=O)c(-c2nc3c(c(NCCc4c[nH]c5ccccc45)n2)OCCN3)c1` [Example 68, 3-[4-[2-(1H-indol-3-yl)ethylamino]-7,8-dihydro-6H-pyrimido[5,4-b][1,4]oxazin-2-yl]-5-methyl-pyridin-2-ol], the IC50 at AhR [1] was 33.1 nM.
Consider `O=c1[nH]cc(C(F)(F)F)cc1-c1nc2c(c(NCCc3c[nH]c4ccccc34)n1)OCCN2` [Example 69, 3-(4-((2-(1H-indol-3-yl)ethyl)amino)-7,8-dihydro-6H-pyrimido[5,4-b][1,4]oxazin-2-yl)-5-(trifluoromethyl)pyridin-2 (1H)-one], for which the IC50 on AhR [1] is 81.3 nM.
`O=c1[nH]cc(Cl)cc1-c1nc2c(c(NCCc3c[nH]c4ccccc34)n1)OCCN2` [Example 72, 3-(4-((2-(1H-indol-3-yl)ethyl)amino)-7,8-dihydro-6H-pyrimido[5,4-b][1,4]oxazin-2-yl)-5-chloropyridin-2-ol]: at AhR [1], the IC50 was 14.8 nM.
